Assay results as given in patent US10239925B2, “Peptides and combination of peptides for use in immunotherapy against ovarian cancer and other cancers” (IMMATICS BIOTECHNOLOGIES GMBH, priority 2015, dated 2019).

Assays:
CD8+ T cells = assay: In vitro immunogenicity: priming of CD8+ T cells with aAPCs loaded with peptide/MHC and anti-CD28, multimer readout; format: cell-based, human; conditions: for Wells positive [%]: HLA-A*02 restricted peptides, percentage of positive wells (among evaluable)
Method: In an aspect, the peptides are pre-screened for immunogenicity before being included in the warehouse. By way of example, and not limitation, the immunogenicity of the peptides included in the warehouse is determined by a method comprising in vitro T-cell priming through repeated stimulations of CD8+ T cells from healthy donors with artificial antigen presenting cells loaded with peptide/MHC complexes and anti-CD28 antibody.
FIGS. 3A to 3F show exemplary immunogenicity data: flow cytometry results after peptide-specific multimer staining. CD8+ T cells were primed using artificial APCs coated with anti-CD28 mAb and HLA-A*02 in complex with SeqID No 662 (FIG. 3A, left panel), SeqID No 663 (FIG. 3B, left panel), SeqID No 11 peptide (FIG. 3C, left panel), SeqID No 198 peptide (FIG. 3D, left panel), SeqID No 587 peptide (FIG. 3E, left panel) and SeqID No 427 peptide (FIG. 3F, left panel), respectively. After three cycles of stimulation, the detection of peptide-reactive cells was performed by 2D multimer staining with A*02/SeqID No 662 (FIG. 3A), A*02/SeqID No 663 (FIG. 3B), A*02/SeqID No 11 (FIG. 3C), A*02/SeqID No 198 (FIG. 3D), A*02/SeqID No 587 (FIG. 3E) or A*02/SeqID No 427 (FIG. 3F). Right panels (FIGS. 3A, 3B, 3C, 3D, 3E, and 3F) show control staining of cells stimulated with irrelevant A*02/peptide complexes. Viable singlet cells were gated for CD8+ lymphocytes. Boolean gates helped excluding false-positive events detected with multimers specific for different peptides. Frequencies of specific multimer+ cells among CD8+ lymphocytes are indicated.
In Vitro Immunogenicity for MHC Class I Presented Peptides
In order to obtain information regarding the immunogenicity of the TUMAPs of the present invention, the inventors performed investigations using an in vitro T-cell priming assay based on repeated stimulations of CD8+ T cells with artificial antigen presenting cells (aAPCs) loaded with peptide/MHC complexes and anti-CD28 antibody.
In Vitro Priming of CD8+ T Cells
In order to perform in vitro stimulations by artificial antigen presenting cells loaded with peptide-MHC complex (pMHC) and anti-CD28 antibody, the inventors first isolated CD8+ T cells from fresh HLA-A*02 leukapheresis products via positive selection using CD8 microbeads (Miltenyi Biotec, Bergisch-Gladbach, Germany) of healthy donors obtained from the University clinics Mannheim, Germany, after informed consent.
PBMCs and isolated CD8+ lymphocytes were incubated in T-cell medium (TCM) until use consisting of RPMI-Glutamax (Invitrogen, Karlsruhe, Germany) supplemented with 10% heat inactivated human AB serum (PAN-Biotech, Aidenbach, Germany), 100 U/ml Penicillin/100 μg/ml Streptomycin (Cambrex, Cologne, Germany), 1 mM sodium pyruvate (CC Pro, Oberdorla, Germany), 20 μg/ml Gentamycin (Cambrex). 2.5 ng/ml IL-7 (PromoCell, Heidelberg, Germany) and 10 U/ml IL-2 (Novartis Pharma, Nümberg, Germany) were also added to the TCM at this step.
Generation of pMHC/anti-CD28 coated beads, T-cell stimulations and readout was performed in a highly defined in vitro system using four different pMHC molecules per stimulation condition and 8 different pMHC molecules per readout condition.
The purified co-stimulatory mouse IgG2a anti human CD28 Ab 9.3 (Jung et al., 1987) was chemically biotinylated using Sulfo-N-hydroxysuccinimidobiotin as recommended by the manufacturer (Perbio, Bonn, Germany). Beads used were 5.6 μm diameter streptavidin coated polystyrene particles (Bangs Laboratories, Illinois, USA).
pMHC used for positive and negative control stimulations were A*0201/MLA-001 (peptide […] (SEQ ID NO. 664) from modified Melan-A/MART-1) and A*0201/DDX5-001 ([…] from DDX5, SEQ ID NO. 665), respectively.
800.000 beads/200 μl were coated in 96-well plates in the presence of 4×12.5 ng different biotin-pMHC, washed and 600 ng biotin anti-CD28 were added subsequently in a volume of 200 μl. […]

HLA-A*02:01 = HLA-A*02:01 (Homo sapiens, UniProt P04439, D140Y/D185E/D98H/E176V/E277Q/G131W/G231S/I119V/I121R/I166T/I218V/L300P/L318F/N151K/N90K/P208A/P217A/Q86G/Q94H/R138H/R169H/T345S); assay: MHC binding assay (UV-ligand exchange, anti-β2m ELISA, peptide exchange yield); conditions: binding to HLA-A*02:01
In short: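 Peptide-MHC complexes formed by UV-ligand exchange, cleaving a UV-sensitive placeholder peptide in favour of the test peptide. Exchange yield measured by ELISA: monomers diluted 100-fold onto streptavidin-coated plates, 1 h 37 °C, detected with 2 ug/ml HRP anti-β2m and TMB, absorbance at 450 nm.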

| Substance | Wells positive [%] (CD8+ T cells) | Peptide exchange (MHC class I binding score, peptide exchange yield) (HLA-A*02:01) | donors (CD8+ T cells; percentage of positive donors) | wells (CD8+ T cells; percentage of positive wells) |
| --- | --- | --- | --- | --- |
| 11 (KIFEMLEGV; listed as Homo sapiens) [compound 11] | “+” (<20% = +) | “+++” (>50 = +++) |  |  |
| 113 (GLLPTPLFGV; listed as Homo sapiens) [compound 113] | “+” (<20% = +) | “+++” (>50 = +++) |  |  |
| 143 (LLLDITPEI; listed as Homo sapiens) [compound 143] | “+” (<20% = +) | “++++” (>75% = ++++) |  |  |
| 511 (FLDPYCSASV; listed as Homo sapiens) [compound 511] | “+” (<20% = +) | “++” (>20% = ++) |  |  |
| 48 (ALAELYEDEV; listed as Homo sapiens) [compound 48] | “+” (<20% = +) | “+++” (>50 = +++) |  |  |
| 38 (FLLEDDIHVS; listed as Homo sapiens) [compound 38] | “+” (<20% = +) | “+++” (>50 = +++) |  |  |
| 199 (ALQDVPLSSV; listed as Homo sapiens) [compound 199] | “+” (<20% = +) | “+++” (>50 = +++) |  |  |
| 157 (SLNDEVPEV; listed as Homo sapiens) [compound 157] | “+++” (50% - 69% = +++) | “++” (>20% = ++) |  |  |
| 191 (LLQEGQALEYV; listed as Homo sapiens) [compound 191] | “+++” (50% - 69% = +++) | “++” (>20% = ++) |  |  |
| 384 (ILFANPNIFV; listed as Homo sapiens) [compound 384] | “+” (<20% = +) | “+++” (>50 = +++) |  |  |
| 141 (YLDFSNNRL; listed as Homo sapiens) [compound 141] | “+” (<20% = +) | “++” (>20% = ++) |  |  |
| 499 (KIFDIDEAEEGV; listed as Homo sapiens) [compound 499] | “+” (<20% = +) | “++” (>20% = ++) |  |  |
| 247 (VLLPNDLLEKV; listed as Homo sapiens) [compound 247] | “+” (<20% = +) | “+++” (>50 = +++) |  |  |
| 8 (FTLGNVVGMYL; listed as Homo sapiens) [compound 8] | “+” (<20% = +) | “++++” (>75% = ++++) |  |  |
| 489 (KMWEELPEVV; listed as Homo sapiens) [compound 489] | “+” (<20% = +) | “+++” (>50 = +++) |  |  |
| 56 (KLYEGIPVLL; listed as Homo sapiens) [compound 56] | “+” (<20% = +) | “++++” (>75% = ++++) |  |  |

| Substance | Wells positive [%] (CD8+ T cells) | Peptide exchange (MHC class I binding score, peptide exchange yield) (HLA-A*02:01) | donors (CD8+ T cells; percentage of positive donors) | wells (CD8+ T cells; percentage of positive wells) |
| --- | --- | --- | --- | --- |
| 198 (KTINKVPTV; listed as Homo sapiens) [compound 198] | “++” (20% - 49% = ++) | “+++” (>50 = +++) |  |  |
| 283 (ALYIGDGYVIHLA; listed as Homo sapiens) [compound 283] |  | “+++” (>50 = +++) | +++ (50% - 69% = +++) | + (<20% = +) |
| 166 (YLNHLEPPV; listed as Homo sapiens) [compound 166] | “++++” (≥70% = ++++) | “+++” (>50 = +++) |  |  |
| 603 (FLIEPEHVNTV; listed as Homo sapiens) [compound 603] | “+” (<20% = +) | “++” (>20% = ++) |  |  |
| 215 (QLINHLHAV; listed as Homo sapiens) [compound 215] | “++” (20% - 49% = ++) | “+++” (>50 = +++) |  |  |
| 61 (FLQGYQLHL; listed as Homo sapiens) [compound 61] | “++” (20% - 49% = ++) | “++++” (>75% = ++++) |  |  |
| 518 (KLNAEVACV; listed as Homo sapiens) [compound 518] | “++” (20% - 49% = ++) | “+++” (>50 = +++) |  |  |
| 40 (TLLVKVFSV; listed as Homo sapiens) [compound 40] | “++” (20% - 49% = ++) | “+++” (>50 = +++) |  |  |
| 5 (HLTEVYPEL; listed as Homo sapiens) [compound 5] | “+++” (50% - 69% = +++) | “+++” (>50 = +++) |  |  |
| 395 (ALALGGIAVV; listed as Homo sapiens) [compound 395] | “+++” (50% - 69% = +++) | “++++” (>75% = ++++) |  |  |
| 319 (SLEPQIQPV; listed as Homo sapiens) [compound 319] | “+” (<20% = +) | “++” (>20% = ++) |  |  |
| 152 (ILFEDIFDV; listed as Homo sapiens) [compound 152] | “++” (20% - 49% = ++) | “+++” (>50 = +++) |  |  |
| 3 (SLASKLTTL; listed as Homo sapiens) [compound 3] | “+” (<20% = +) | “++++” (>75% = ++++) |  |  |
| 446 (QLIPALAKV; listed as Homo sapiens) [compound 446] | “++” (20% - 49% = ++) | “+++” (>50 = +++) |  |  |
| 36 (YVLEDLEVTV; listed as Homo sapiens) [compound 36] | “+” (<20% = +) | “++” (>20% = ++) |  |  |
